US20260365670A1, “EGFR INHIBITORS AND USES THEREOF” (DIZAL (JIANGSU) PHARMACEUTICAL CO., LTD., priority 2022, published 2026)
Read-outs that look alike come from different tables or passages of the source.

Tests used:
[1] = target: T1, EGFR[T790M/C797S/d746-750] (Homo sapiens, UniProt P00533, C797S/DEL746-750/T790M); assay: Inhibition of EGFR[T790M/C797S/d746-750] biochemical enzymatic activity (HTRF)
T1 construct: purchased Carna Bio
Method: (§1) Biological Example 1: Inhibition of EGFR WT and Mutant Biochemical Enzymatic Activity
(§2) The inhibition potency of compounds against these enzymes was assessed using Homogenous Time Resolved Fluorescence approach (HTRF, CisBio. Cat No. 62TKOPEJ).
(§3) Inhibitory effects of the compounds were determined by measuring the enzymatic activity of EGFR enzyme phosphorylates 1 μM TK Substrate-biotin in the presence of 1 mM adenosine-5′-triphosphate (ATP) and varying concentrations of the test compound. The enzyme reaction buffer contains 5 mM MgCl2, 1 mM MnC12, 0.01% CHAPS, 1 mM dithiothreitol (DTT), 0.5% dimethylsulfoxide (DMSO), and 1× supplemented enzymatic buffer. The WT and mutant EGFR enzymes (SignalChem) were added to plates containing inhibitors, followed by activation of the kinase reaction by addition of ATP and peptide substrates. After incubation for 1 h at room temperature, the reaction was stopped by the addition of the detection reagent mix containing EDTA. The fluorescence was measured at 615 nm and 665 nm, respectively with excitation wavelength at 320 nm. The calculated signal ratio of 665 nm/615 nm is proportional to the kinase activity. The concentration of compound producing 50% inhibition of the respective kinase (IC50) was calculated using four-parameter logistic fit with XL-FIT.

EGFR[T790M/C797S/L858R] = target: T2, EGFR[T790M/C797S/L858R] (Homo sapiens, UniProt P00533, C797S/L858R/T790M); assay: Inhibition of EGFR[T790M/C797S/L858R] biochemical enzymatic activity (HTRF); conditions: 1 mM ATP
T2 construct: purchased Carna Bio
Method: as §1, §2, §3

PC-9 = assay: Cell proliferation assay, PC-9 cells (CellTiter-Glo, 72 hours); format: cell-based; conditions: PC9 cells
Procedure, shortened: (§4)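 In RPMI1640 medium (PC-9 with 10% FBS), each cell line was seeded at its own density: Ba/F3 5000 and PC-9 500 per well. A compound series was added the next day, with a time-zero viability plate read in parallel. Percent proliferation was subtracted for G0 and referenced to DMSO, and GI50 was derived by curve fitting.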

EGFR Exon19Del/T790M = target: T3, EGFR Exon19Del/T790M (Homo sapiens, UniProt P00533, DEL746-750/T790M); assay: Inhibition of EGFR Exon19Del/T790M biochemical enzymatic activity (HTRF); conditions: 1 mM ATP
T3 construct: purchased Carna Bio
Method: as §1, §2, §3

EGFR wild type = target: T4, EGFR wild type (Homo sapiens, UniProt P00533); assay: Inhibition of EGFR wild type biochemical enzymatic activity (HTRF); conditions: 1 mM ATP
T4 construct: purchased Carna Bio
Method: as §1, §2, §3

[2] = system: Ba/F3 cells expressing EGFR mutations; assay: Cell proliferation assay, Ba/F3 cells expressing EGFR mutations (CellTiter-Glo, 72 hours); format: cell-based
Procedure, shortened: as §4

EGFR Exon19Del = target: T5, EGFR Exon19Del (Homo sapiens, UniProt P00533, DEL746-750); assay: Inhibition of EGFR Exon19Del biochemical enzymatic activity (HTRF); conditions: read-out: IC50 @Del19
T5 construct: purchased Carna Bio
Method: as §1, §2, §3

EGFR (C797S L858R) = target: T6, EGFR (C797S L858R) (Homo sapiens, UniProt P00533, C797S/L858R); assay: Inhibition of EGFR (C797S L858R) biochemical enzymatic activity (HTRF); conditions: 1 mM ATP
T6 construct: purchased signalchem
Method: as §1, §2, §3

EGFR (d746-750 C797S) = target: T7, EGFR (d746-750 C797S) (Homo sapiens, UniProt P00533, C797S/DEL746-750); assay: Inhibition of EGFR (d746-750 C797S) biochemical enzymatic activity (HTRF); conditions: 1 mM ATP
T7 construct: purchased signalchem
Method: as §1, §2, §3

EGFR L858R/T790M = target: T8, EGFR L858R/T790M (Homo sapiens, UniProt P00533, L858R/T790M); assay: Inhibition of EGFR L858R/T790M biochemical enzymatic activity (HTRF); conditions: 1 mM ATP
T8 construct: purchased Carna Bio
Method: as §1, §2, §3

EGFR L858R = target: T9, EGFR L858R (Homo sapiens, UniProt P00533, L858R); assay: Inhibition of EGFR L858R biochemical enzymatic activity (HTRF); conditions: 1 mM ATP
T9 construct: purchased Carna Bio
Method: as §1, §2, §3

[3] = EGFR[T790M/C797S/d746-750], 1 mM ATP, 1 h at room temperature, read-out: IC50 @T790M - C797S - Del19
[4] = EGFR[T790M/C797S/L858R], 1 h at room temperature, read-out: IC50 @T790M- C797S - L858R
[5] = EGFR Exon19Del/T790M, 1 h at room temperature, read-out: IC50 @Del19-T790M
[6] = EGFR wild type, 1 h at room temperature, read-out: IC50 @WT
[7] = BaF3 cells, EGFR DEL19 - C797S, read-out: GI50 DEL19 - C797S/BaF3
[8] = BaF3 cells, EGFR DEL19 - T790-C797S, read-out: GI50 DEL19 - T790-C797S/BaF3
[9] = BaF3 cells, EGFR L858R - C797S, read-out: GI50 L858R - C797S/BaF3
[10] = BaF3 cells, EGFR L858R - T790-C797S, read-out: GI50 L858R - T790-C797S/BaF3
[11] = BaF3 cells, EGFR L858R - T790M, read-out: GI50 L858R - T790M/BaF3
[12] = BaF3 cells, EGFR L858R, read-out: GI50 L858R/BaF3
[13] = EGFR DEL19 - T790M, read-out: GI50 DEL19 - T790M
[14] = EGFR Exon19Del, 1 mM ATP, 1 h at room temperature
[15] = EGFR (C797S L858R), 1 h at room temperature, read-out: IC50 @L858-C797S
[16] = EGFR (d746-750 C797S), 1 h at room temperature, read-out: IC50 @Del19-C797S
[17] = EGFR L858R/T790M, 1 h at room temperature, read-out: IC50 @L858R-T790M
[18] = 1 h at room temperature, read-out: IC50 @L858R

T1 sequence (P00533 with tags, fused parts or gaps DEL746-750/T790M/C797S limits assumed): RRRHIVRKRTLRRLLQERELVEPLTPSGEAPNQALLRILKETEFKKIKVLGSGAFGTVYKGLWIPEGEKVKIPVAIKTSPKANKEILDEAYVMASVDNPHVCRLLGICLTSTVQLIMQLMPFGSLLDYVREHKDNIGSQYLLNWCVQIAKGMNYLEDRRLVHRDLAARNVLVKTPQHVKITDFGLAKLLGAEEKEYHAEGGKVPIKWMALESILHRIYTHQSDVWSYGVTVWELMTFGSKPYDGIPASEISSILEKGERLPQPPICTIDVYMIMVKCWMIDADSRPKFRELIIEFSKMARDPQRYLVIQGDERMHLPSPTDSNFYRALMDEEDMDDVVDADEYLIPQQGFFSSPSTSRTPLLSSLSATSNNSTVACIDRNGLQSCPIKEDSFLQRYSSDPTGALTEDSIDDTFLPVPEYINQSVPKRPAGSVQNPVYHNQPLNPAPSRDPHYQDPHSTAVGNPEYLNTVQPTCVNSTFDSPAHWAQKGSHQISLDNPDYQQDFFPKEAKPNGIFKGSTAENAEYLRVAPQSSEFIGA
T5 sequence (P00533 with tags, fused parts or gaps DEL746-750 limits assumed): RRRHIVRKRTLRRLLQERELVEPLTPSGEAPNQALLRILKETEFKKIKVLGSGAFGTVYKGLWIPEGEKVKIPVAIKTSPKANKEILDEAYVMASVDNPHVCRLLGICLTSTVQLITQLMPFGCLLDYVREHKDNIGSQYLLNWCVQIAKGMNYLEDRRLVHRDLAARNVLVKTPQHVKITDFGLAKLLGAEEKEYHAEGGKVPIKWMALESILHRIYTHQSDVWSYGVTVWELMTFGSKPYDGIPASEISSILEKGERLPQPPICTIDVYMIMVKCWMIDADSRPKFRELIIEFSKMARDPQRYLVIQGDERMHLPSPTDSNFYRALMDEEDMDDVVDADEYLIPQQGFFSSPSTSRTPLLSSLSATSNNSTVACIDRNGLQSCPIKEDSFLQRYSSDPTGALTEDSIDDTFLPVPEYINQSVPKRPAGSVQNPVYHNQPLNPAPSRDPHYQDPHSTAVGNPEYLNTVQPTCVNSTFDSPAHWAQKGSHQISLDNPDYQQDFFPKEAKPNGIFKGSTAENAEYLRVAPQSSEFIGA
T2 sequence (P00533 25-1210 T790M/C797S/L858R): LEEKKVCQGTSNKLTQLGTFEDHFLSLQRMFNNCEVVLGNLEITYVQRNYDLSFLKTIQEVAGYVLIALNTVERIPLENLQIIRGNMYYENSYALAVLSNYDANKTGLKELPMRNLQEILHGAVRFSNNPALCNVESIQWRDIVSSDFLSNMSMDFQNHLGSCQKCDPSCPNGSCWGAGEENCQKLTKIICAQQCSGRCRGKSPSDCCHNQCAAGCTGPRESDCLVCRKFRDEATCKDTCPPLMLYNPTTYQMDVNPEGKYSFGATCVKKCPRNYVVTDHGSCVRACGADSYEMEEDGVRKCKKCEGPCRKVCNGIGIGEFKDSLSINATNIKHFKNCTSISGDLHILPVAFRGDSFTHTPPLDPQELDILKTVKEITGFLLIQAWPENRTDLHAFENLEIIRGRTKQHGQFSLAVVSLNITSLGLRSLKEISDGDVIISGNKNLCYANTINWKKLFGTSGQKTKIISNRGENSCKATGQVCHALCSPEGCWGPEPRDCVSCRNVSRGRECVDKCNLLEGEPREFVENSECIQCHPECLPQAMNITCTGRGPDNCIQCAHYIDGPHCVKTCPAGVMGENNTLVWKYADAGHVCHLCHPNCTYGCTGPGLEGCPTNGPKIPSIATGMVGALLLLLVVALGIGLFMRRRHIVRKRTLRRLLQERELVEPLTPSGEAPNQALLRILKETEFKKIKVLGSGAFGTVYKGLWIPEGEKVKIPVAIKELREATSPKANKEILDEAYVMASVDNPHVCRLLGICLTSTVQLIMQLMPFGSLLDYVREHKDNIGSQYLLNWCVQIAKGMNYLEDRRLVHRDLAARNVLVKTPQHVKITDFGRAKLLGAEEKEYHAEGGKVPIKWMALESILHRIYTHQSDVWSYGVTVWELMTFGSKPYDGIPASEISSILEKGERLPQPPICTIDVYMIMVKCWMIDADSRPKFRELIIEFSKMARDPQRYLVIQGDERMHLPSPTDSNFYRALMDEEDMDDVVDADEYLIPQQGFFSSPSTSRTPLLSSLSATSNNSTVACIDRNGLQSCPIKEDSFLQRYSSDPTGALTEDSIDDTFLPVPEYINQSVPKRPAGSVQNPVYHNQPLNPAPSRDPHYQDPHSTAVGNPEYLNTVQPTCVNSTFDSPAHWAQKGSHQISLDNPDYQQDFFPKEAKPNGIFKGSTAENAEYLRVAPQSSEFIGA
T7 sequence (P00533 with tags, fused parts or gaps DEL746-750/C797S limits assumed): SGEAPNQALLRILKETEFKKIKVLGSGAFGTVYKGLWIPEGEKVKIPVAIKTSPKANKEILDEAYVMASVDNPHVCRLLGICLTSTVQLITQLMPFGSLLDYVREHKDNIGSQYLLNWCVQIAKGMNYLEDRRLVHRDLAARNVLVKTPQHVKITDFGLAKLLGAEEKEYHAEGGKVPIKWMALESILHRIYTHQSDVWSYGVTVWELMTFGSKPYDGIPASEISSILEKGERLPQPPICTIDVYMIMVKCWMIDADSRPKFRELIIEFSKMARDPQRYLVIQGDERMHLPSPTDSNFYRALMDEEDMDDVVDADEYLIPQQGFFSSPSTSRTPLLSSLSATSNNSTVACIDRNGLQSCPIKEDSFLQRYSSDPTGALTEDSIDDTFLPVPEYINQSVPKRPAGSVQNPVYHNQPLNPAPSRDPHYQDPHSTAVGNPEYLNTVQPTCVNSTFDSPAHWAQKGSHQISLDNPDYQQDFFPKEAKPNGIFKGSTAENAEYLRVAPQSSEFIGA
T3 sequence (P00533 with tags, fused parts or gaps DEL746-750/T790M limits assumed): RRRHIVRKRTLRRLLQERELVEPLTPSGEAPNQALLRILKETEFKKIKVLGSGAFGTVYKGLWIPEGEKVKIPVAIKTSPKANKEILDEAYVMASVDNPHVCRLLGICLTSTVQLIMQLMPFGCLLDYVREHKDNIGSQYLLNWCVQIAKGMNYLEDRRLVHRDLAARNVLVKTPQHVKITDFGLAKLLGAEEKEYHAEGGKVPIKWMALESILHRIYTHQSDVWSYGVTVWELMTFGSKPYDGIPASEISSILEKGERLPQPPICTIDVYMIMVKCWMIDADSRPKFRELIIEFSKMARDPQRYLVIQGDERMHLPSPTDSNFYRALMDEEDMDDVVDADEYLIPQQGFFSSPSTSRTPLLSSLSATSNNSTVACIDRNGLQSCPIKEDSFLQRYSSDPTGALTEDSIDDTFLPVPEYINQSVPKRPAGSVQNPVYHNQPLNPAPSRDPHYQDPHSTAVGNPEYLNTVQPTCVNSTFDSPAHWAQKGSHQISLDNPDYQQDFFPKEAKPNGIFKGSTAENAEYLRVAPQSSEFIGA
T4 sequence (P00533 25-1210): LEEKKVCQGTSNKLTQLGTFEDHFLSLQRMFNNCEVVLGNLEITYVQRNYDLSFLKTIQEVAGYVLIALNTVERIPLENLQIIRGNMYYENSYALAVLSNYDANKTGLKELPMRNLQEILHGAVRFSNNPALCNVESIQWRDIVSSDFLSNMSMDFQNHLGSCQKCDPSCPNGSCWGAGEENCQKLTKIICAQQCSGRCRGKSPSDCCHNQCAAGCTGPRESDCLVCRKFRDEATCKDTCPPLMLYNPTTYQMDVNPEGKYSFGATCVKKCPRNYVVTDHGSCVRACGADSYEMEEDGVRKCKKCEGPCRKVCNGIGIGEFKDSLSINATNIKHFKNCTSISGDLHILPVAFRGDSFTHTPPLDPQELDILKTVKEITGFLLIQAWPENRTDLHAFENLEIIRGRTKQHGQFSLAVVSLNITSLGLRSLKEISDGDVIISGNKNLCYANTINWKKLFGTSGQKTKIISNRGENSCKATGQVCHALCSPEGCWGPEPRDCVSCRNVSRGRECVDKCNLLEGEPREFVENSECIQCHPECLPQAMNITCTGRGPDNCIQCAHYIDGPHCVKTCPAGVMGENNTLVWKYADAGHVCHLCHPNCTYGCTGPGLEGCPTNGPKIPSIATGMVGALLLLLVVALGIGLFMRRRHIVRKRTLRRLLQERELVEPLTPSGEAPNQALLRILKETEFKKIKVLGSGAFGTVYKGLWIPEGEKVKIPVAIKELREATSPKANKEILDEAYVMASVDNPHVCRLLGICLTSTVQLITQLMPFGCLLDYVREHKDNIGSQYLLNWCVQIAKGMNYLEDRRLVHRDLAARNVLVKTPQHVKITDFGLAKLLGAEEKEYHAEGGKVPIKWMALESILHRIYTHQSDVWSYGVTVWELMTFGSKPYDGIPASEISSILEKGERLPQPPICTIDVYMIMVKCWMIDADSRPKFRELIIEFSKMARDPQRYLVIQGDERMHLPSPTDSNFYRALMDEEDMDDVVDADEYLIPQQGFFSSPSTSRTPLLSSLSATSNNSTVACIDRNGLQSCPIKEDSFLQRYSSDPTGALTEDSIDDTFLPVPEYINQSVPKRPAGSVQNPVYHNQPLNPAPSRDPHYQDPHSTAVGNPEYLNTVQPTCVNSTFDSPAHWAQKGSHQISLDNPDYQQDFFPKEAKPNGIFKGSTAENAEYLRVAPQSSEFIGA

| Compound | IC50 [1, 3] | IC50 (EGFR[T790M/C797S/L858R]; [4]) | GI50 (PC-9; read-out: GI50 PC9) | IC50 (EGFR Exon19Del/T790M; [5]) | IC50 (EGFR wild type; [6]) | GI50 [2, 7] | GI50 [2, 8] | GI50 [2, 9] | GI50 [2, 10] | GI50 [2, 11] | GI50 [2, 12] | GI50 [2, 13] | IC50 (EGFR Exon19Del; [14]) | IC50 (EGFR (C797S L858R); [15]) | IC50 (EGFR (d746-750 C797S); [16]) | IC50 (EGFR L858R/T790M; [17]) | IC50 (EGFR L858R; [18]) | further results |
| --- | --- | --- | --- | --- | --- | --- | --- | --- | --- | --- | --- | --- | --- | --- | --- | --- | --- | --- |
| C[C@@H]1CCCOc2c(cnn2CC(F)(F)F)-c2cc(cn(C)c2=O)C(=O)Nc2nc3ccc(N4CCN(C)CC4)cc3n2C1 [Example A20, (11R)-11,26-Dimethyl-16-(4-methylpiperazin-1-yl)-5-(2,2,2-trifluoroethyl)-7-oxa-4,5,13,20,22,26-hexaazapentacyclo[22.3.1.0^{2,6}.0^{13,21}.0^{14,19}]octacosa-1(28),2(6),3,14,16,18,20,24-octaene-23,27-dione] | – | – | – | – | – | – | – | – | – | – | – | – | – | – | – | – | – | IC50 ([1]; EGFR T790M-C797S-Del19, 1 mM ATP, 1 h, room temperature, read-out: IC50 (nM) @T790M - C797S - Del19): 40 nM; IC50 (EGFR[T790M/C797S/L858R]; EGFR T790M-C797S-L858R, 1 h, room temperature, read-out: IC50 (nM) @T790M- C797S - L858R): 76 nM; GI50 (PC-9; Homo sapiens, PC-9, 72 h, CellTiter-Glo, read-out: PC9 GI50): 145 nM; IC50 (EGFR Exon19Del/T790M; EGFR Del19-T790M, 1 h, room temperature, read-out: IC50 (nM) @Del19-T790M): 41 nM; IC50 (EGFR wild type; EGFR WT, 1 h, room temperature, read-out: IC50 (nM) @WT): > 5000 nM; GI50 ([2]; Mus musculus, BaF3, 72 h, BaF3 cells, EGFR DEL19-C797S, CellTiter-Glo, read-out: DEL19-C797S/BaF3 GI50): 17.1 nM; GI50 ([2]; Mus musculus, BaF3, 72 h, BaF3 cells, EGFR DEL19-T790-C797S, CellTiter-Glo, read-out: DEL19-T790-C797S/BaF3 GI50): 204 nM; GI50 ([2]; Mus musculus, BaF3, 72 h, BaF3 cells, EGFR L858R, CellTiter-Glo, read-out: L858R/BaF3 GI50): 89 nM; GI50 ([2]; Mus musculus, BaF3, 72 h, BaF3 cells, EGFR L858R-C797S, CellTiter-Glo, read-out: L858R-C797S/BaF3 GI50): 87 nM; GI50 ([2]; Mus musculus, BaF3, 72 h, BaF3 cells, EGFR L858R-T790-C797S, CellTiter-Glo, read-out: L858R-T790-C797S/BaF3 GI50): 51 nM; GI50 ([2]; Mus musculus, BaF3, 72 h, BaF3 cells, EGFR L858R-T790M, CellTiter-Glo, read-out: L858R-T790M/BaF3 GI50): 39 nM; GI50 ([2]; Mus musculus, BaF3, 72 h, EGFR DEL19-T790M, CellTiter-Glo, read-out: DEL19-T790M GI50): 226 nM; IC50 (EGFR Exon19Del; EGFR Del19, 1 mM ATP, 1 h, room temperature): 86 nM; IC50 (EGFR (C797S L858R); EGFR L858-C797S, 1 h, room temperature, read-out: IC50 (nM) @L858-C797S): 132 nM; IC50 (EGFR (d746-750 C797S); EGFR Del19-C797S, 1 h, room temperature, read-out: IC50 (nM) @Del19-C797S): 42 nM; IC50 (EGFR L858R/T790M; EGFR L858R-T790M, 1 h, room temperature, read-out: IC50 (nM) @L858R-T790M): 82 nM; IC50 (EGFR L858R; 1 h, room temperature, read-out: IC50 (nM) @L858R): 301 nM |
| Cc1cc2cc(n1)-c1cnn(C)c1OCCN1CC3CCC(C3)(C1)n1c(nc3ccc(N4CC5CN(C)CC5C4)cc31)NC2=O (single isomer, unassigned) [Example B43A] | 200 nM | > 5000 nM | 1320 nM | 1160 nM | > 5000 nM | 193 nM | 200 nM | 442 nM | 68 nM | 305 nM | 998 nM | 271 nM | > 5000 nM | > 5000 nM | > 5000 nM | > 5000 nM | > 5000 nM | – |
| Cc1cc2cc(n1)-c1cnn(C)c1OCCN1CC3CCC(C3)(C1)n1c(nc3ccc(N(C)CCCN(C)C)cc31)NC2=O (single isomer, unassigned) [Example B45A] | 1290 nM | > 5000 nM | 2800 nM | 3620 nM | > 5000 nM | 239 nM | 363 nM | 10000 nM | 48 nM | 10000 nM | 2850 nM | 10000 nM | > 5000 nM | > 5000 nM | > 5000 nM | > 5000 nM | > 5000 nM | – |
